Source: PubChem BioAssay AID248 (DTP/NCI, 2004)
Several values for one entry are separate records, joined by “and”; a condition that tells them apart may be missing. Equal values may be shown once. Inconclusive results and toxic doses are left out.

Test system: L1210 leukemia ip in BDF1 mice, survival T/C
Assay: NCI In Vivo Anticancer Drug Screen. Data for tumor model L1210 Leukemia (intraperitoneal) in B6D2F1 (BDF1) mice
Settings: endpoint: mean survival time, higher = longer survival
Procedure, shortened: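 Survival endpoint. Drug-treated group vs vehicle group, expressed as T divided by C. Tumor passaged by transplantation.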

[1] = dose: 100.0 mg/kg/injection, schedule: Q01DX001 (ip), vehicle: carboxymethylcellulose (CMC)
[2] = dose: 200.0 mg/kg/injection, schedule: Q01DX001 (ip), vehicle: carboxymethylcellulose (CMC)
[3] = dose: 400.0 mg/kg/injection, schedule: Q01DX001 (ip), vehicle: carboxymethylcellulose (CMC)
[4] = dose: 100.0 mg/kg/injection, schedule: Q01DX009 (ip), vehicle: Klucel (hydroxypropylcellulose) (HPC)
[5] = dose: 100.0 mg/kg/injection, schedule: Q04DX003 (ip), vehicle: Klucel (hydroxypropylcellulose) (HPC)
[6] = dose: 200.0 mg/kg/injection, schedule: Q04DX003 (ip), vehicle: Klucel (hydroxypropylcellulose) (HPC)
[7] = dose: 400.0 mg/kg/injection, schedule: Q04DX003 (ip), vehicle: Klucel (hydroxypropylcellulose) (HPC)
[8] = dose: 100.0 mg/kg/injection, schedule: Q04DX003 (ip), vehicle: saline with Tween-80
[9] = dose: 200.0 mg/kg/injection, schedule: Q04DX003 (ip), vehicle: saline with Tween-80

Question: Which T/C (dose: 3.0 mg/kg/injection, schedule: Q01DX015 (ip), vehicle: carboxymethylcellulose (CMC)) does the source give for `Fc1ccc(CSc2ncnc3c2ncn3C2CCCCO2)cc1` (stereo not drawn) here?
Answer: 97 % of control

Question: What about the T/C (dose: 6.0 mg/kg/injection, schedule: Q01DX015 (ip), vehicle: carboxymethylcellulose (CMC)) of the same compound?
Answer: 97 % of control

Question: What about the T/C (dose: 12.0 mg/kg/injection, schedule: Q01DX015 (ip), vehicle: carboxymethylcellulose (CMC)) of the same compound?
Answer: 98 % of control

Question: What about the T/C (dose: 25.0 mg/kg/injection, schedule: Q01DX015 (ip), vehicle: carboxymethylcellulose (CMC)) of the same compound?
Answer: 102 % of control

Question: What about the T/C (dose: 50.0 mg/kg/injection, schedule: Q01DX015 (ip), vehicle: carboxymethylcellulose (CMC)) of the same compound?
Answer: 101 % of control

Question: What about the T/C [1] of the same compound?
Answer: 96 % of control

Question: What about the T/C (dose: 100.0 mg/kg/injection, schedule: Q01DX015 (ip), vehicle: carboxymethylcellulose (CMC)) of the same compound?
Answer: 103 % of control

Question: And the T/C [2]?
Answer: 96 % of control

Question: What about the T/C (dose: 200.0 mg/kg/injection, schedule: Q01DX015 (ip), vehicle: carboxymethylcellulose (CMC)) of the same compound?
Answer: 119 % of control

Question: And the T/C [3]?
Answer: 102 % of control

Question: And the T/C (dose: 400.0 mg/kg/injection, schedule: Q01DX015 (ip), vehicle: carboxymethylcellulose (CMC))?
Answer: 166 % of control

Question: What about the T/C (dose: 800.0 mg/kg/injection, schedule: Q01DX001 (ip), vehicle: carboxymethylcellulose (CMC)) of the same compound?
Answer: 102 % of control

Question: What about the T/C (dose: 1600.0 mg/kg/injection, schedule: Q01DX001 (ip), vehicle: carboxymethylcellulose (CMC)) of the same compound?
Answer: 112 % of control

Question: For `COc1ccc(NC(=O)Nc2cccc(C(F)(F)F)c2)c(OC)c1`, which T/C (dose: 100.0 mg/kg/injection, schedule: Q01DX009 (ip), vehicle: gum acacia) is on record?
Answer: 102 % of control

Question: And the T/C (dose: 200.0 mg/kg/injection, schedule: Q01DX009 (ip), vehicle: gum acacia)?
Answer: 98 % of control

Question: What about the T/C (dose: 400.0 mg/kg/injection, schedule: Q01DX009 (ip), vehicle: gum acacia) of the same compound?
Answer: 101 % of control

Question: How did the T/C (dose: 100.0 mg/kg/injection, schedule: Q01DX001 (ip), vehicle: Klucel (hydroxypropylcellulose) (HPC)) turn out when `Cc1ccc(C)c(OC(=O)Nc2cccc(C(F)(F)F)c2)c1` was run?
Answer: 104 % of control

Question: And the T/C [4]?
Answer: 93 % of control and 110 % of control

Question: And the T/C (dose: 100.0 mg/kg/injection, schedule: Q04DX002 (ip), vehicle: Klucel (hydroxypropylcellulose) (HPC))?
Answer: 105 % of control

Question: What about the T/C [5] of the same compound?
Answer: 92 % of control

Question: What about the T/C (dose: 200.0 mg/kg/injection, schedule: Q01DX001 (ip), vehicle: Klucel (hydroxypropylcellulose) (HPC)) of the same compound?
Answer: 98 % of control

Question: And the T/C (dose: 200.0 mg/kg/injection, schedule: Q01DX009 (ip), vehicle: Klucel (hydroxypropylcellulose) (HPC))?
Answer: 96 % of control and 109 % of control

Question: And the T/C (dose: 200.0 mg/kg/injection, schedule: Q04DX002 (ip), vehicle: Klucel (hydroxypropylcellulose) (HPC))?
Answer: 99 % of control and 115 % of control

Question: And the T/C [6]?
Answer: 97 % of control

Question: And the T/C (dose: 400.0 mg/kg/injection, schedule: Q01DX001 (ip), vehicle: Klucel (hydroxypropylcellulose) (HPC))?
Answer: 100 % of control

Question: And the T/C (dose: 400.0 mg/kg/injection, schedule: Q01DX009 (ip), vehicle: Klucel (hydroxypropylcellulose) (HPC))?
Answer: 101 % of control and 86 % of control

Question: What about the T/C (dose: 400.0 mg/kg/injection, schedule: Q04DX002 (ip), vehicle: Klucel (hydroxypropylcellulose) (HPC)) of the same compound?
Answer: 101 % of control and 105 % of control

Question: And the T/C [7]?
Answer: 103 % of control

Question: Which results are given for `Cc1nccn1C`?
Answer: T/C (dose: 100.0 mg/kg/injection, schedule: Q01DX001 (ip), vehicle: saline): 101 % of control; T/C (dose: 200.0 mg/kg/injection, schedule: Q01DX001 (ip), vehicle: saline): 90 % of control; T/C (dose: 400.0 mg/kg/injection, schedule: Q01DX001 (ip), vehicle: saline): 92 % of control

Question: What does the source list for `CCC(C(N)=O)N1C(=O)C2C3CCC(O3)C2C1=O` (stereo not drawn)?
Answer: T/C (dose: 100.0 mg/kg/injection, schedule: Q04DX003 (ip), vehicle: saline): 101 % of control; T/C (dose: 200.0 mg/kg/injection, schedule: Q04DX003 (ip), vehicle: saline): 97 % of control; T/C (dose: 400.0 mg/kg/injection, schedule: Q04DX003 (ip), vehicle: saline): 101 % of control

Question: Which results are given for `CC(=O)c1cccc(OCC(O)CN(C(C)C)C(C)C)c1` (stereo not drawn)?
Answer: T/C (dose: 100.0 mg/kg/injection, schedule: Q01DX009 (ip), vehicle: saline): 98 % of control; T/C (dose: 200.0 mg/kg/injection, schedule: Q01DX009 (ip), vehicle: saline): 98 % of control

Question: For `CCOP(=O)(/N=C1/C2CCC(C2)C1C)OCC` (stereo not drawn), which T/C (dose: 12.5 mg/kg/injection, schedule: Q04DX003 (ip), vehicle: saline) is on record?
Answer: 94 % of control

Question: What about the T/C (dose: 25.0 mg/kg/injection, schedule: Q04DX003 (ip), vehicle: saline) of the same compound?
Answer: 105 % of control

Question: And the T/C (dose: 50.0 mg/kg/injection, schedule: Q04DX003 (ip), vehicle: saline)?
Answer: 102 % of control

Question: With `CC(C)c1ccc(C(=O)C2CC2)cc1` as the compound, how does the T/C (dose: 25.0 mg/kg/injection, schedule: Q01DX009 (ip), vehicle: Klucel (hydroxypropylcellulose) (HPC)) read?
Answer: 93 % of control

Question: And the T/C (dose: 50.0 mg/kg/injection, schedule: Q01DX009 (ip), vehicle: Klucel (hydroxypropylcellulose) (HPC))?
Answer: 101 % of control

Question: And the T/C [4]?
Answer: 93 % of control and 91 % of control

Question: What about the T/C [5] of the same compound?
Answer: 96 % of control

Question: What about the T/C [6] of the same compound?
Answer: 96 % of control

Question: And the T/C [7]?
Answer: 94 % of control

Question: With `FC(F)(F)Cc1cccc(C(F)(F)F)c1` as the compound, how does the T/C (dose: 100.0 mg/kg/injection, schedule: Q01DX001 (ip), vehicle: saline with Tween-80) read?
Answer: 113 % of control

Question: And the T/C (dose: 200.0 mg/kg/injection, schedule: Q01DX001 (ip), vehicle: saline with Tween-80)?
Answer: 103 % of control

Question: And the T/C (dose: 400.0 mg/kg/injection, schedule: Q01DX001 (ip), vehicle: saline with Tween-80)?
Answer: 105 % of control

Question: What does the source list for `Cc1ccc(NC(=S)Nc2cccc(C(F)(F)F)c2)cc1C`?
Answer: T/C (dose: 87.5 mg/kg/injection, schedule: Q01DX009 (ip), vehicle: Klucel (hydroxypropylcellulose) (HPC)): 101 % of control; T/C (dose: 175.0 mg/kg/injection, schedule: Q01DX009 (ip), vehicle: Klucel (hydroxypropylcellulose) (HPC)): 98 % of control; T/C (dose: 350.0 mg/kg/injection, schedule: Q01DX009 (ip), vehicle: Klucel (hydroxypropylcellulose) (HPC)): 102 % of control

Question: With `CC(=O)CCc1c(C)nc(Nc2nc3cc(C)c(C)cc3[nH]2)nc1C` as the compound, how does the T/C [5] read?
Answer: 93 % of control

Question: What about the T/C [6] of the same compound?
Answer: 96 % of control

Question: And the T/C [7]?
Answer: 93 % of control

Question: Which T/C (dose: 20.0 mg/kg/injection, schedule: Q01DX005 (ip), vehicle: saline with Tween-80) does the source give for `O=C(c1ccccc1)c1ccc(NC(=S)Nc2ccc(C(=O)c3ccccc3)cc2)cc1` here?
Answer: 97 % of control

Question: And the T/C (dose: 40.0 mg/kg/injection, schedule: Q01DX005 (ip), vehicle: saline with Tween-80)?
Answer: 92 % of control

Question: And the T/C (dose: 80.0 mg/kg/injection, schedule: Q01DX005 (ip), vehicle: saline with Tween-80)?
Answer: 92 % of control

Question: And the T/C (dose: 160.0 mg/kg/injection, schedule: Q01DX005 (ip), vehicle: saline with Tween-80)?
Answer: 95 % of control

Question: And the T/C (dose: 320.0 mg/kg/injection, schedule: Q01DX005 (ip), vehicle: saline with Tween-80)?
Answer: 97 % of control

Question: For `COc1c2ccoc2nc2c(OC)c(OCC(O)C(C)(C)O)ccc12` (stereo not drawn), which T/C (dose: 50.0 mg/kg/injection, schedule: Q01DX Z (ip), vehicle: carboxymethylcellulose (CMC)) is on record?
Answer: 97 % of control

Question: What about the T/C (dose: 100.0 mg/kg/injection, schedule: Q01DX Z (ip), vehicle: carboxymethylcellulose (CMC)) of the same compound?
Answer: 100 % of control

Question: Which results are given for `COc1ccc(OC)c(NC(=O)Nc2cccc(Cl)c2Cl)c1`?
Answer: T/C [5]: 86 % of control; T/C [6]: 90 % of control; T/C [7]: 88 % of control

Question: Which T/C (dose: 25.0 mg/kg/injection, schedule: Q01DX009 (ip), vehicle: saline with Tween-80) does the source give for `COc1ccc(C)cc1NC(=S)NC(=O)c1ccc(Cl)cc1Cl` here?
Answer: 93 % of control and 105 % of control

Question: And the T/C (dose: 50.0 mg/kg/injection, schedule: Q01DX009 (ip), vehicle: saline with Tween-80)?
Answer: 93 % of control and 94 % of control

Question: What about the T/C (dose: 100.0 mg/kg/injection, schedule: Q04DX002 (ip), vehicle: saline with Tween-80) of the same compound?
Answer: 96 % of control

Question: And the T/C [8]?
Answer: 98 % of control

Question: What about the T/C (dose: 200.0 mg/kg/injection, schedule: Q04DX002 (ip), vehicle: saline with Tween-80) of the same compound?
Answer: 93 % of control and 107 % of control

Question: And the T/C [9]?
Answer: 95 % of control

Question: What about the T/C (dose: 400.0 mg/kg/injection, schedule: Q01DX009 (ip), vehicle: saline with Tween-80) of the same compound?
Answer: 96 % of control

Question: What about the T/C (dose: 400.0 mg/kg/injection, schedule: Q04DX002 (ip), vehicle: saline with Tween-80) of the same compound?
Answer: 93 % of control and 98 % of control

Question: How did the T/C [1] turn out when `Nc1ncnc(N)c1NC(=O)c1ccc(OCCCOc2ccccc2)c(Cl)c1` was run?
Answer: 96 % of control

Question: What about the T/C [2] of the same compound?
Answer: 101 % of control

Question: What about the T/C [3] of the same compound?
Answer: 96 % of control

Question: How did the T/C [8] turn out when `Clc1ccc(SSc2ccc(Cl)cc2)cc1` was run?
Answer: 102 % of control

Question: And the T/C [9]?
Answer: 94 % of control

Question: And the T/C (dose: 400.0 mg/kg/injection, schedule: Q04DX003 (ip), vehicle: saline with Tween-80)?
Answer: 98 % of control
